The assay addresses Mcl-1 protein (UniProtKB Q07820) (Homo sapiens (Human), UniProt Q07820). Kind of assay: Inhibition of Mcl-1 by the fluorescence polarisation assay (Example A, Method A). The class given is binding. The note with it: fluorescence polarization assay. The method in brief: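 Protein (5 nM) and fluorescein-tagged peptide tracer (1 nM) incubated with 11-point compound series for 2 h at room temperature in HEPES/NaCl/Tween 20 buffer, pH 7.4, 5% DMSO. Displacement read as decrease in polarisation; IC50 fitted by 4-parameter logistic, converted to Ki (cKi or eKi).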

pKi: −log10 of the molar value.

Sequence of Mcl-1 protein (Q07820 whole entry): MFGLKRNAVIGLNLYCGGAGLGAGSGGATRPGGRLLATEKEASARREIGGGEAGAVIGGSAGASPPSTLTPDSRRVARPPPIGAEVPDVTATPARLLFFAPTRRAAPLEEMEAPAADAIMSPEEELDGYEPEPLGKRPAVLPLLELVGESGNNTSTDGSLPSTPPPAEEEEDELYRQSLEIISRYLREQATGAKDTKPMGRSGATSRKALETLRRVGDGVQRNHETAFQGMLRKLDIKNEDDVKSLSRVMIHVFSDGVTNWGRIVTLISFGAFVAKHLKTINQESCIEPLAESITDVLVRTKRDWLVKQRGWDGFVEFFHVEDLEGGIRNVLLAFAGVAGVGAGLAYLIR

Consider `O=C(O)[C@]1(Nc2cccc(Cl)c2)CC[C@]2(CC1)C(C1CN(Cc3c(F)ccc(F)c3F)C1)=Cc1ccccc12` [Example 99, (1r,4r)-4-(3-chloroanilino)-2′-{1-[(2,3,6-trifluorophenyl)methyl]azetidin-3-yl}spiro[cyclohexane-1,1′-indene]-4-carboxylic acid], for which the pKi is 5.54.
For `O=C(O)[C@]1(Nc2cccc(Cl)c2)CC[C@@]2(CC1)c1ccccc1C[C@H]2C1CCC1` [Example 100, (1r,2′S,4S)-4-(3-chloroanilino)-2′-cyclobutyl-2′,3′-dihydrospiro[cyclohexane-1,1′-indene]-4-carboxylic acid], the pKi is 5.58.
`O=C(O)[C@]1(Nc2cccc(Cl)c2)CC[C@@]2(CC1)c1ccccc1C[C@@H]2C1CCC1` [Example 101, (1r,2′R,4R)-4-(3-chloroanilino)-2′-cyclobutyl-2′,3′-dihydrospiro[cyclohexane-1,1′-indene]-4-carboxylic acid]: the pKi was 4.57.
`O=C(O)[C@]1(Nc2cccc(Cl)c2)CC[C@]2(CC1)C(C1CN(CC(F)(F)F)C1)=Cc1ccccc12` [Example 102, (1r,4r)-4-(3-chloroanilino)-2′-[1-(2,2,2-trifluoroethyl)azetidin-3-yl]spiro[cyclohexane-1,1′-indene]-4-carboxylic acid]: the pKi was 4.97.
With `O=C(O)C1(Nc2cccc(Br)c2)CCC2(CC1)c1ccccc1-c1ccccc12` [Example 117, 4-[(3-bromophenyl)amino]spiro[cyclohexane-1,9′-fluorene]-4-carboxylic acid], the pKi was 5.24.
As to `O=C(O)C1(Nc2cccc(Cl)c2)CCC2(CC1)c1ccccc1-c1ccccc12` [Example 118, 4-(3-chloroanilino)spiro[cyclohexane-1,9′-fluorene]-4-carboxylic acid], the negative logarithm of the Ki (pKi) is 5.40.
Regarding `O=C(O)[C@]1(Nc2cccc(Br)c2)CC[C@@]2(CCCc3ccccc32)CC1` [Example 119, (1r,4s)-4-(3-bromoanilino)-3′,4′-dihydro-2′H-spiro[cyclohexane-1,1′-naphthalene]-4-carboxylic acid], the pKi is 6.08.
As to `O=C(O)[C@]1(Nc2cc(Cl)cc(Cl)c2)CC[C@@]2(CCCc3ccccc32)CC1` [Example 120, (1r,4s)-4-[(3,5-dichlorophenyl)amino]-3′,4′-dihydro-2′H-spiro[cyclohexane-1,1′-naphthalene]-4-carboxylic acid], the pKi was 4.71.
As to `C=CCOC1Cc2ccccc2[C@]12CC[C@@](Nc1cccc(Br)c1)(C(=O)O)CC2` (stereo partly drawn) [Example 121, (1s,4s)-4-(3-bromoanilino)-2′-[(prop-2-en-1-yl)oxy]-2′,3′-dihydrospiro[cyclohexane-1,1′-indene]-4-carboxylic acid], the pKi was 5.81.
As for `C=CCOC1Cc2ccccc2[C@]12CC[C@@](Nc1cccc(Cl)c1)(C(=O)O)CC2` (stereo partly drawn) [Example 122, (1s,4s)-4-(3-chloroanilino)-2′-[(prop-2-en-1-yl)oxy]-2′,3′-dihydrospiro[cyclohexane-1,1′-indene]-4-carboxylic acid], the pKi was 5.42.
For `Cc1ccc(C)c2c1CC(C)C21CCC(Nc2cccc(Br)c2)(C(=O)O)CC1` (stereo not drawn) [Example 123, 4-(3-bromoanilino)-2′,4′,7′-trimethyl-2′,3′-dihydrospiro[cyclohexane-1,1′-indene]-4-carboxylic acid], the pKi was 5.19.
In the case of `CC1=Cc2cc(Cl)ccc2C12CCC(Nc1cccc(Br)c1)(C(=O)O)CC2` (stereo not drawn) [Example 124, 4-(3-bromoanilino)-5′-chloro-2′-methylspiro[cyclohexane-1,1′-indene]-4-carboxylic acid], the pKi is 5.89.
As for `CC1=Cc2cccc(C)c2C12CCC(Nc1cccc(Br)c1)(C(=O)O)CC2` (stereo not drawn) [Example 125, 4-(3-bromoanilino)-2′,7′-dimethylspiro[cyclohexane-1,1′-indene]-4-carboxylic acid], the pKi was 5.12.
The value for `COc1ccc2c(c1)[C@]1(CC[C@](Nc3cccc(Br)c3)(C(=O)O)CC1)C(Cc1ccccc1)C2` (stereo partly drawn) [Example 126, (1s,4s)-2′-benzyl-4-(3-bromoanilino)-6′-methoxy-2′,3′-dihydrospiro[cyclohexane-1,1′-indene]-4-carboxylic acid] was 5.04.
As to `COc1ccc2c(c1)[C@]1(CC[C@@](Nc3cccc(Br)c3)(C(=O)O)CC1)C(Cc1ccccc1)C2` (stereo partly drawn) [Example 127, (1r,4r)-2′-benzyl-4-(3-bromoanilino)-6′-methoxy-2′,3′-dihydrospiro[cyclohexane-1,1′-indene]-4-carboxylic acid], the pKi was 5.55.
The value for `COc1ccc2c(c1)[C@]1(CC[C@](Nc3cccc(Br)c3)(C(=O)O)CC1)C(C)(C)C2` [Example 128, (1s,4s)-4-(3-bromoanilino)-6′-methoxy-2′,2′-dimethyl-2′,3′-dihydrospiro[cyclohexane-1,1′-indene]-4-carboxylic acid] was 4.34.
On to `COc1ccc2c(c1)[C@]1(CC[C@@](Nc3cccc(Cl)c3)(C(=O)O)CC1)C(Br)=C2` [Example 129, (1s,4s)-2′-bromo-4-(3-chloroanilino)-6′-methoxyspiro[cyclohexane-1,1′-indene]-4-carboxylic acid], for which the pKi was 7.09.
Take `COc1ccc2c(c1)C=C(Br)[C@]21CC[C@](Nc2cccc(Cl)c2)(C(=O)O)CC1` [Example 130, (1s,4s)-2′-bromo-4-(3-chloroanilino)-5′-methoxyspiro[cyclohexane-1,1′-indene]-4-carboxylic acid]: the pKi was 7.03.
For `CC(=O)c1ccc2c(c1)[C@]1(CC[C@@](Nc3cccc(Cl)c3)(C(=O)O)CC1)C(Br)=C2` [Example 132, (1s,4s)-6′-acetyl-2′-bromo-4-(3-chloroanilino)spiro[cyclohexane-1,1′-indene]-4-carboxylic acid], the pKi is 6.82.
On to `CC(O)c1ccc2c(c1)[C@]1(CC[C@@](Nc3cccc(Cl)c3)(C(=O)O)CC1)C(Br)=C2` (stereo partly drawn) [Example 133, (1s,4s)-2′-bromo-4-(3-chloroanilino)-6′-(1-hydroxyethyl)spiro[cyclohexane-1,1′-indene]-4-carboxylic acid], for which the pKi was 7.24.
With `O=C(O)[C@]1(Nc2cccc(Cl)c2)CC[C@]2(CC1)C(Br)=Cc1ccc(Cl)cc12` [Example 134, (1s,4s)-2′-bromo-6′-chloro-4-(3-chloroanilino)spiro[cyclohexane-1,1′-indene]-4-carboxylic acid], the pKi was 6.58.
`O=C(O)[C@]1(Nc2cccc(Cl)c2)CC[C@]2(CC1)C(Br)=Cc1cc(Cl)ccc12` [Example 135, (1s,4s)-2′-bromo-5′-chloro-4-(3-chloroanilino)spiro[cyclohexane-1,1′-indene]-4-carboxylic acid]: the pKi is 6.70.
With `COc1cc2c(cc1OC)[C@]1(CC[C@@](Nc3cccc(Cl)c3)(C(=O)O)CC1)C(Br)=C2` [Example 136, (1s,4s)-2′-bromo-4-(3-chloroanilino)-5′,6′-dimethoxyspiro[cyclohexane-1,1′-indene]-4-carboxylic acid], the negative-log Ki (pKi) is 6.59.
In the case of `O=C(O)[C@]1(Nc2cccc(Cl)c2)CC[C@]2(CC1)C(Br)=Cc1c(Cl)cccc12` [Example 137, (1s,4s)-2′-bromo-4′-chloro-4-(3-chloroanilino)spiro[cyclohexane-1,1′-indene]-4-carboxylic acid], the pKi is 6.72.
For the compound `O=C(O)[C@]1(Nc2cccc(Cl)c2)CC[C@]2(CC1)C(Br)=Cc1cc(F)ccc12` [Example 138, (1s,4s)-2′-bromo-4-(3-chloroanilino)-5′-fluorospiro[cyclohexane-1,1′-indene]-4-carboxylic acid], the pKi was 6.66.
`O=C(O)[C@]1(Nc2cccc(Cl)c2)CC[C@]2(CC1)C(Br)=Cc1ccc(F)cc12` [Example 139, (1s,4s)-2′-bromo-4-(3-chloroanilino)-6′-fluorospiro[cyclohexane-1,1′-indene]-4-carboxylic acid]: the pKi was 6.58.
The result for `CC1=Cc2ccccc2[C@]12CC[C@@](Nc1cccc(Br)c1)(C(=O)O)CC2` [Example 142, (1r,4r)-4-(3-bromoanilino)-2′-methylspiro[cyclohexane-1,1′-indene]-4-carboxylic acid] reads 6.58.
On to `CC1=Cc2ccccc2[C@]12CC[C@@](Nc1cccc(Cl)c1)(C(=O)O)CC2` [Example 143, (1r,4r)-4-(3-chloroanilino)-2′-methylspiro[cyclohexane-1,1′-indene]-4-carboxylic acid], for which the pKi is 6.74.
With `CCC1=Cc2ccccc2[C@]12CC[C@](Nc1cccc(Br)c1)(C(=O)O)CC2` [Example 146, (1s,4s)-4-(3-bromoanilino)-2′-ethylspiro[cyclohexane-1,1′-indene]-4-carboxylic acid], the pKi is 5.16.
The value for `CCCC1Cc2ccccc2[C@]12CC[C@@](Nc1cccc(Br)c1)(C(=O)O)CC2` (stereo partly drawn) [Example 148, (1r,4r)-4-(3-bromoanilino)-2′-propyl-2′,3′-dihydrospiro[cyclohexane-1,1′-indene]-4-carboxylic acid] was 6.59; that for `O=C(O)[C@]1(Nc2cccc(Br)c2)CC[C@@]2(CC1)C(CCCc1ccccc1)=Cc1ccccc12` [Example 149, (1s,4s)-4-(3-bromoanilino)-2′-(3-phenylpropyl)spiro[cyclohexane-1,1′-indene]-4-carboxylic acid] was 4.20; that for `O=C(O)[C@]1(Nc2cccc(Cl)c2)CC[C@]2(CC1)C(/C=C/CC1CCCC1)=Cc1ccccc12` [Example 152, (1r,4r)-4-(3-chloroanilino)-2′-[(1E)-3-cyclopentylprop-1-en-1-yl]spiro[cyclohexane-1,1′-indene]-4-carboxylic acid] was 6.22.
For `O=C(O)[C@]1(Nc2cccc(Cl)c2)CC[C@@]2(CC1)c1ccccc1CC2CCCC1CCCC1` (stereo partly drawn) [Example 153, (1r,4r)-4-(3-chloroanilino)-2′-(3-cyclopentylpropyl)-2′,3′-dihydrospiro[cyclohexane-1,1′-indene]-4-carboxylic acid], the pKi is 6.29.

By pKi is commonly meant the Ki on a negative log10 scale, so that one unit is a factor of ten.
